The values below come from US20250320496A1, “MODULATION OF ABCB11 GENE TRANSCRIPTION USING ANTISENSE OLIGONUCLEOTIDES TARGETING REGULATORY RNAS” (CAMP4 Therapeutics Corporation, priority 2022, published 2025).

The subject of one series is CYP7A1 mRNA. Put plainly: ASO treatment of primary human hepatocytes (PHH), CYP7A1 mRNA by RT-qPCR normalized to B2M. It is filed as cell-based. Particulars: for expression of CYP7A1 mRNA, dose response: PHHs (FIG. 3B); for CYP7A1 mRNA levels, dose response: PHHs, Day 4, relative to B2M (FIG. 5B). As to the method: Primary human hepatocytes (PHH) were thawed using Lonza Human Cryopreserved Hepatocyte Thawing Medium and plated in 96-well collagen-coated plates (5.5-6.0×10^4 cells per well). Four hours later, the media was replaced with sterile-filtered QualGro™ Hepatocyte Culture Medium (BioIVT) containing antibiotic supplement, 0.3 mg/ml Matrigel® matrix (Corning®), and ASO at the desired concentration (e.g., 1.25 μM, 2.5 μM, 5 μM, or 10 μM). […] Plates were frozen at-80° C. during cell lysis. After thawing, total RNA was isolated using the Qiagen RNEasy kit as instructed by manufacturer. cDNA (random-primed) was synthesized from 10 μl of RNA using the LifeTech High Capacity cDNA Reverse Transcription kit. 2 μl of cDNA was used for reverse transcription-quantitative PCR (RT-qPCR) analyses using standard Taqman” reagents from Applied Biosystems™ to measure ABCB11 and CYP7A1 gene expression. Gene expression data was normalized to the housekeeper gene, beta-2-microglobulin (B2M).
ASOs targeting ABCB11 regRNA enhance bile acid efflux in vitro. Levels of cholesterol 7 alpha-hydroxylase (CYP7A1) mRNA (or the enzymatic activity of its protein) can be used to track changes in bile acid synthesis in the liver since the CYP7A1 protein is the first and rate-limiting step in the conversion of cholesterol to bile acids (see, e.g., Chiang and Ferrel (2020) Liver Res. 4 (2): 47-63). […] Conversely, when bile acid levels reach high levels, this gene is actively down regulated. These changes are mediated by farnesoid X receptor (FXR), a sensor of bile acid levels, and the master regulator of intracellular bile acid concentrations. CYP7A1 mRNA can therefore be used as a surrogate for monitoring changes in hepatic bile acids in response to ASO treatment. Accordingly, an ASO that successfully increases ABCB11 expression would be expected to promote increased bile acid efflux, thus reducing bile acid levels in the cell. In a wild-type (non-disease) setting, this reduction promotes a compensatory increase in CYP7A1 to restore normal levels.

A further series concerns human ABCB11 mRNA. Put plainly: ASO treatment of primary human hepatocytes (PHH), ABCB11 mRNA by RT-qPCR normalized to B2M. Type of series: cell-based. Also noted: ABCB11 mRNA, dose titration: unit of the concentration uncertain. Particulars: for ABCB11 mRNA expression, dose response / ABCB11 mRNA, dose titration: PHHs; for ABCB11 mRNA expression, dose response: Day 4 after ASO treatment (FIG. 5A); for ABCB11 mRNA, dose titration: CO-3986 and CO-4529 tested at 2.5 (unit uncertain), 5 μM, and 10 μM; for ABCB11 mRNA FC (5 μM ASO vs. UNT): normalized to untreated PHHs (UNT). The method in brief: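 ABCB11 mRNA was quantified by Taqman RT-qPCR relative to B2M and expressed as fold over untreated cells. Cells were cryopreserved primary human hepatocytes given ASO in Matrigel-supplemented medium 4 h after plating, at 1.25, 2.5, 5 or 10 μM (5 μM for screening), and harvested after 72 hrs.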
For orientation: Quantitative PCR measures a nucleic acid by following its amplification.

Setting [1] is: PHHs treated for two days, collected Day 2 to Day 7, result on Day 4.

Strand notation (5' to 3'): a small letter for the sugar, then the base; units joined by * are phosphorothioate-linked, units joined directly phosphodiester-linked; [ ] holds rarer units or linkages, { } end groups; capitals alone tell only the bases. e = 2'-O-(2-methoxyethyl) (MOE); l = locked nucleic acid (LNA); [5mC] = 5-methylcytosine; d = 2'-deoxy (DNA)

On to “CO-4556: ASO targeting eRNA RR74 (RR74_v1) of human ABCB11 (antisense eG*eA*eA*eG*eG*eA*e[5mC]*eA*e[5mC]*eA*eA*eT*eT*eT*e[5mC]*eT*eG*eT*eA*eG)”, for which, in the series on CYP7A1 mRNA, the “expression of CYP7A1 mRNA, dose response” value was “increased expression of CYP7A1 mRNA in a dose-dependent manner” and the “CYP7A1 mRNA levels, dose response” value is “dose-responsive increases”. Further, in the series on human ABCB11 mRNA, the “ABCB11 mRNA expression, dose response” value is “dose-responsive increase” and the “ABCB11 mRNA, dose titration” value is recorded as “dose-dependent increase”.
With “CO-4535: ASO targeting eRNA RR64 (RR64_v2) of human ABCB11 (antisense eT*eG*eG*e[5mC]*eG*eT*eT*eA*eT*eT*eA*eA*eT*eT*e[5mC]*eT*eA*e[5mC]*eA*eG)”, in the series on CYP7A1 mRNA, the “expression of CYP7A1 mRNA, dose response” value was “increased expression of CYP7A1 mRNA in a dose-dependent manner” and the “CYP7A1 mRNA levels, dose response” value was “dose-responsive increases”. The “CYP7A1 mRNA, time course” value with CYP7A1 mRNA (setting [1]) was “strong ABCB11 and CYP7A1 mRNA upregulation”. Further, the “ABCB11 mRNA, time course” value in the series with human ABCB11 mRNA (setting [1]) was “strong ABCB11 and CYP7A1 mRNA upregulation”. Also, in the series on human ABCB11 mRNA, the “ABCB11 mRNA expression, dose response” value is given as “dose-responsive increase” and the “ABCB11 mRNA, dose titration” value is reported as “dose-dependent increase”.
As to “CO-4513: ASO targeting a downstream regRNA from enhancer RR62_v2 (antisense eG*eT*eG*eA*eG*eG*e[5mC]*eA*eT*e[5mC]*eA*eG*eG*eT*eA*eA*eG*eT*eT*e[5mC])”, the “CYP7A1 mRNA levels, dose response” value in the series with CYP7A1 mRNA is recorded as “dose-responsive increases”. Moreover, the “ABCB11 mRNA expression, dose response” value with human ABCB11 mRNA is “dose-responsive increase”. For the same substance, the “ABCB11 mRNA FC (5 μM ASO vs. UNT)” value with human ABCB11 mRNA (primary human hepatocytes) is 1.122 fold change.
Turning to “CO-7159 (antisense eG*eG*eA*eG*eG*eT*eG*eG*eA*eG*e[5mC]*eA*eA*eA*e[5mC]*eT*eA*eG*eG*e[5mC])”, in the series on human ABCB11 mRNA (primary human hepatocytes), the “ABCB11 mRNA FC (5 μM ASO vs. UNT)” value is 1.326 fold change.
The same measure, in the same setting: the figure for “CO-6993 (antisense eT*eG*eG*eA*eT*lG*eT*eA*eG*eA*lT*eG*eA*eA*eT*lG*eG*e[5mC]*eA*eA)” is 1.209 fold change.
Still for that read-out and setting: the figure for “CO-4480 (antisense e[5mC]*e[5mC]*eT*eG*eA*eG*eA*eT*eT*eG*eA*eG*e[5mC]*eT*eA*eT*eA*e[5mC]*eT*eG)” is 0.931 fold change; for “CO-7195 (eG*eG*eT*eG*eG*eA*dG*d[5mC]*dA*dA*dA*d[5mC]*dT*dA*dG*dG*e[5mC]*eA*e[5mC]*eT*eG*eA; antisense)” it is 1.443 fold change; for “CO-6966 (antisense eA*eT*eG*eA*eA*eT*eG*eG*e[5mC]*eA*eA*eG*eG*eA*eG*eA*eG*eG*eA*eT)” it is 1.177 fold change.
Same read-out and setting: with “CO-4516 (antisense eA*eT*eG*eA*e[5mC]*eA*eT*eG*eA*eT*eA*eG*e[5mC]*eA*e[5mC]*e[5mC]*e[5mC]*eA*eA*e[5mC])” the figure was 1.033 fold change.
As to “CO-4526 (antisense eG*e[5mC]*eT*eT*eG*eT*eG*eA*eT*eG*eT*e[5mC]*e[5mC]*eA*eG*eA*eT*eG*eA*e[5mC])”, the “ABCB11 mRNA FC (5 μM ASO vs. UNT)” value with human ABCB11 mRNA (primary human hepatocytes) is 1.048 fold change.
Same read-out and setting: the figure for “CO-7058 (antisense eT*e[5mC]*eT*eG*eG*lA*dA*dA*lA*dT*dA*lA*dT*dG*l[5mC]*e[5mC]*eT*eT*eT*e[5mC])” is 1.052 fold change.
In the case of “CO-12745 (antisense eG*eT*eG*eA*eGeGe[5mC]*eA*eT*e[5mC]*eA*eG*eG*eTeAeA*eG*eT*eT*e[5mC])”, the “ABCB11 FC mRNA (5 μM ASO vs. untreated)” value in the series with human ABCB11 mRNA (primary human hepatocytes, 5 μM ASO with PO-modifications, normalized to untreated hepatocytes) turned out to be 0.92 fold change.
